Data set [1] in a line: Bioavailability and pharmacokinetics in healthy volunteers. The settings on record: 10 mg oral solution.
For data set [2], the system named is patients with multiple sclerosis. The data set is described as follows: Pooled analysis of MS-F202, MS-F203 and MS-F204. In kind it is in vivo, human. The settings on record: Timed-Walk Responders. As for the experimental part:
The primary efficacy variable was analyzed by comparing 4-aminopyridine-SR 10 mg b.i.d., the now FDA-approved clinical dose, to placebo with respect to the proportion of patients with consistent improvements in walking speed (Timed-Walk Responders).
A set of post-hoc analyses using a traditional definition of response based on threshold change was performed to provide additional evidence of the robustness of the primary analyses using the Timed-Walk Responder criterion. For these analyses, a patient was defined as a “% Responder” at various thresholds of response (at average increases in walking speed during the treatment period of at least 10%, 20%, etc. up to 60% from baseline). Fisher's Exact test was used to compare 4-aminopyridine to placebo for each study and for the pooled analysis.
DesignAVIethods: All patients from MS-F202, MS-F203 and MS-F204 were included in a pooled analysis. Patients with clinically definite multiple sclerosis were randomized to 4-aminopyridine-SR 10 mg bid or placebo for up to 14 weeks. The primary efficacy variable was defined as a faster walking speed on the Timed 25-Foot Walk (T25FW) for at least 3 of 4 double-blind efficacy visits compared with the maximum walking speed on any of 5 off-treatment visits, and was determined prospectively for MS-F203 and MS-F204 and retrospectively in MS-F202. The average Walking Speed (“WS”) over four baseline and four treatment visits were compared by treatment and TWR status.
All patients from MS-F202, MS-F203 and MS-F204 were included in a pooled analysis. Patients with clinically definite multiple sclerosis were randomized to 4-aminopyridine-SR 10 mg bid or placebo for up to 14 weeks. The primary efficacy variable was defined as a faster walking speed on the Timed 25-Foot Walk (T25FW) for at least 3 of 4 double-blind efficacy visits compared with the maximum walking speed on any of 5 off-treatment visits, and was determined prospectively for MS-F203 and MS-F204 and retrospectively in MS-F202.
Methods: Data for patients who received the therapeutic dose of 4-aminopyridine-SR, 10mg bid, in three randomized controlled trials (MS-F202, MS-F203, and MS-F204) were pooled (n=394) and compared to placebo (n=237). Comparative analyses were based on the percent change from baseline in WS using the timed 25-foot walk. […] The percent change in WS for the pooled populations for each double-blind visit was evaluated by time interval to account for differences in study schedules (Days 1-21, 22-49, 50-77, and 78-end of double-blind phase). The percent changes were analyzed with analysis of variance with effects for treatment group, study, and site within study.

For data set [3], the system named is normal adult myelinated axons. The following applies: cited from earlier work.
The test system of data set [4] is patients with multiple sclerosis. The data set is described as follows: MS-F204EXT open-label extension study. The settings on record: cut-off Jul. 31, 2008. In kind it is in vivo, human. How it is done: Data were presented by study pair (parent and extension).
In the MS-F204EXT study, which allowed patients to enroll directly from the parent study MS-F204, open label 4-aminopyridine-SR 10 mg b.i.d. was dispensed at visit 0 (a separate screening visit was only required if the screening visit could not be combined with the Final visit for MS-F204); visit 1 was scheduled to occur two weeks after screening visit (or visit 0), visit 2 at 12 weeks after visit 1, visit 3 at 12 weeks after visit 2. The planned interval between subsequent visits was 26 weeks. Therefore, at visit 4, a patient should have been on 4-aminopyridine-SR treatment for approximately one year.
This Example considers efficacy data collected from the three ongoing, open label extension studies (MS-F202EXT, MS-F203EXT, MS-F204EXT). The primary focus was the Timed 25-Foot Walk, assessed in a manner consistent with its evaluation in the parent double-blind studies. This included the determination of response to treatment using a criterion equivalent to the Timed Walk Response criterion used in the parent studies. […] The clinical meaningfulness of this criterion was evaluated in terms of the Subject and Clinician Global Impression scores recorded during the extension studies.
In the extension studies, a “Timed Walk Extension Responder” was defined as a patient who achieved a faster walking speed on the T25FW for the majority of on-drug treatment visits during the first year of the study (Visits 1-4 for MS-F203EXT and MS-F204EXT) than the maximum walking speed previously measured for the patient during any off-drug visits in either the parent study or in the extension study.

In general, Cmax refers to the maximum level reached in the sampled fluid or tissue. As for `Nc1ccncc1` [4-aminopyridine], in data set [1], the peak concentration (Cmax) is on record as 42.7 ng/mL. The “double-blind average percent change from baseline in walking speed” value in data set [2] (average improvement) is 24%. Also, the “average increase in walking speed by time from last dose” value in data set [2] (dose interval 9-10 hrs) is given as 25%; in data set [2] (dose interval 10-11 hrs), 24%; in data set [2] (dose interval 11-12 hrs), 20%. Further, the “concentrations causing gradual depolarization of the axon resting potential” value in data set [3] is “above 1 mM”. Also, the “concentrations at which the action potential shows little or no sensitivity” value in data set [3] (normal adult myelinated axons) is reported as “below 100 μM”. In addition, the “patients classified as Extension Timed Walk Responders” value was 49.3% in data set [4] (all patients), 30.0% in data set [4] (parent-study treated Timed Walk Non-Responders), 71.4% in data set [4] (parent-study treated Timed Walk Responders) and 50.0% in data set [4] (placebo-treated in parent study).

Source of the values: patent publication US20170319562A1, “Compositions and Methods for Extended Therapy with Aminopyridines” (Acorda Therapeutics, Inc., priority 2009, published 2017).
